In one experiment the target is Coagulation factor X (Homo sapiens, UniProt P00742). Put plainly: Inhibition of human factor 10a by spectrophotometric assay.
The target of another experiment is Prothrombin (Homo sapiens, UniProt P00734). Put plainly: Inhibition of human thrombin using spectrozyme TH as substrate by spectrophotometric assay.
The target of another experiment is Coagulation factor XI (Homo sapiens, UniProt P03951). Put plainly: Inhibition of human factor 11a by spectrophotometric assay.
A short description of experiment [1]: Anticoagulant activity in human […] assessed as concentration required to double prothrombin time. It is filed as functional.
Experiment [2] can be described thus: Anticoagulant activity in human […] assessed as concentration required to double activated partial thromboplastin time. It is filed as functional.

Structures are written as SMILES.

The IC50 is the concentration that inhibits the measured activity by half.

Coagulation factor X, sequence (P00742 41-179 limits assumed): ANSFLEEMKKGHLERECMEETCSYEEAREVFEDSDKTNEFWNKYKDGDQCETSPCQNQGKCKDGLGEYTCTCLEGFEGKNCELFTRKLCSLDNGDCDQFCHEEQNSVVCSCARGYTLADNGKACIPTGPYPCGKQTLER
Coagulation factor X, sequence (P00742 235-488 limits assumed): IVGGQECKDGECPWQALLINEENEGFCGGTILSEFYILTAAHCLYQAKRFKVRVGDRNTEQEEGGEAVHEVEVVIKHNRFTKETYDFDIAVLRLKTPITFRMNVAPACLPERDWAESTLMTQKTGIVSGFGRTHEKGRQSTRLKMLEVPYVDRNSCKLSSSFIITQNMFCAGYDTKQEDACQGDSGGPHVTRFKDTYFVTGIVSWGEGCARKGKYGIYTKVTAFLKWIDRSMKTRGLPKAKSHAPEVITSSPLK
Coagulation factor XI, sequence (P03951 19-387 limits assumed): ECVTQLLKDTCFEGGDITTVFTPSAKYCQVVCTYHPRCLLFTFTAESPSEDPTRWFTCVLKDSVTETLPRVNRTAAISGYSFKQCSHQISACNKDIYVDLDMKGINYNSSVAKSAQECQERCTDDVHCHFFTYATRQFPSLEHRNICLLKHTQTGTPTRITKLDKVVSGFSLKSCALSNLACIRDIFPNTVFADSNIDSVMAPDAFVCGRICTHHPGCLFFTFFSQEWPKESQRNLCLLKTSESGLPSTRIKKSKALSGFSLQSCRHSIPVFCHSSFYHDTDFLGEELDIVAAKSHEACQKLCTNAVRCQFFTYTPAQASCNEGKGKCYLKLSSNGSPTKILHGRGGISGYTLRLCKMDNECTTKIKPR
Coagulation factor XI, sequence (P03951 388-625 limits assumed): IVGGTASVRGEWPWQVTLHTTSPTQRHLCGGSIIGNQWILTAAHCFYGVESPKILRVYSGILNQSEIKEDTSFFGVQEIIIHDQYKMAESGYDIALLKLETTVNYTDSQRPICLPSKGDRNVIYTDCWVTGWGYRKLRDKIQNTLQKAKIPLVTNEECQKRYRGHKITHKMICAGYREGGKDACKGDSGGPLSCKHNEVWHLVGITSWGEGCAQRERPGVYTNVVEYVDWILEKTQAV

As to `Cc1nc2ccc(OCc3nc4ccc(OS(=O)(=O)[O-])cc4s3)cc2s1.[Na+]`, the half-inhibitory concentration (IC50) entry is “Not Active” on Coagulation factor X, 327 µM against Prothrombin and “Not Active” at Coagulation factor XI.
For the molecule `COc1cc2occ(C(=O)OC(C)(C)C)c2cc1OCc1nc2ccc(OS(=O)(=O)O)cc2s1`, the IC50 at Coagulation factor X (read-out: IC50) came to 352 µM; against Prothrombin, 146 µM; on Coagulation factor XI (read-out: IC50), 124 µM.
As to `CCOC(=O)c1c(COc2cc3c(C(=O)OCC)c(Cc4ccccc4)oc3cc2OC)[nH]c2ccc(OS(=O)(=O)[O-])cc12.[Na+]`, the 50% inhibitory concentration (IC50) at Coagulation factor X (read-out: IC50) was determined as 195 µM; at Prothrombin, 327 µM; at Coagulation factor XI (read-out: IC50) it was 118 µM. For the same molecule, in experiment [1], the 2PT came to 2361 µM. For the same molecule, the 2aPTT in experiment [2] was determined as 1021 µM.
Taken in the same sequence, the figures for `CCOC(=O)c1c(COc2cc3c(C(=O)OCC)c(COc4cc5c(C(=O)OCC)c(C)oc5cc4OC)oc3cc2OC)[nH]c2ccc(OS(=O)(=O)[O-])cc12.[Na+]` were 344 µM, 304 µM, 86.9 µM, 845 µM and 755 µM.
Taken in the same sequence, the figures for `CCOC(=O)c1c(C)[nH]c2ccc(OCc3c(C(=O)OCC)c4cc(OS(=O)(=O)[O-])ccc4n3C(=O)OC(C)(C)C)cc12.[Na+]` were 229 µM, 425 µM, 220 µM, 1475 µM and 424 µM.
